± gives the expanded uncertainty stated by the source.
Test: excess molar enthalpy (molar enthalpy of mixing); xn = mol fraction of the nth substance listed
Conditions: 773.15 K, 101 kPa, Liquid, Calvet calorimetry

[In] [indium] + [Sn]
Conditions	excess molar enthalpy [kJ/mol]
x2 = 0.1	-0.183 ± 0.003
x2 = 0.1966	-0.374 ± 0.005
x2 = 0.2981	-0.437 ± 0.005
x2 = 0.4041	-0.383 ± 0.005
x2 = 0.5002	-0.331 ± 0.004
x2 = 0.5005	-0.316 ± 0.004
x2 = 0.5949	-0.301 ± 0.004
x2 = 0.6901	-0.241 ± 0.003
x2 = 0.7891	-0.165 ± 0.003
x2 = 0.8975	-0.087 ± 0.002

— the NIST ThermoML archive (doi:10.1016/j.tca.2010.02.008)
